Where “and” joins values, the source holds several entries; their conditions need not be identical. Equal values may be shown once. ± gives the expanded uncertainty stated by the source.
Legend:
[1] = xn = mol fraction of the nth substance listed; settings: 100 kPa, Liquid, x2 = 0; for viscosity: Capillary tube (Ostwald / Ubbelohde) method; for mass density: Vibrating tube method
[2] = 293.15 K; 100 kPa; Liquid; Capillary tube (Ostwald / Ubbelohde) method
[3] = 293.15 K; 100 kPa; Liquid; Vibrating tube method
[4] = 298.15 K; 100 kPa; Liquid; Capillary tube (Ostwald / Ubbelohde) method
[5] = 298.15 K; 100 kPa; Liquid; Vibrating tube method
[6] = 303.15 K; 100 kPa; Liquid; Capillary tube (Ostwald / Ubbelohde) method
[7] = 303.15 K; 100 kPa; Liquid; Vibrating tube method
[8] = 308.15 K; 100 kPa; Liquid; Capillary tube (Ostwald / Ubbelohde) method
[9] = 308.15 K; 100 kPa; Liquid; Vibrating tube method
[10] = 313.15 K; 100 kPa; Liquid; Capillary tube (Ostwald / Ubbelohde) method
[11] = 313.15 K; 100 kPa; Liquid; Vibrating tube method
[12] = 318.15 K; 100 kPa; Liquid; Capillary tube (Ostwald / Ubbelohde) method
[13] = 318.15 K; 100 kPa; Liquid; Vibrating tube method
[14] = 323.15 K; 100 kPa; Liquid; Capillary tube (Ostwald / Ubbelohde) method
[15] = 323.15 K; 100 kPa; Liquid; Vibrating tube method

`CCCCn1cc[n+](C)c1C.O=S(=O)([N-]S(=O)(=O)C(F)(F)F)C(F)(F)F` gave a viscosity [2] of 133.59 ± 3.4 mPa·s, a mass density [3] of 1423.72 ± 11 kg/m3 and a viscosity [4] of 101.34 ± 2.4 mPa·s. The mass density [5] was 1419.13 ± 11 kg/m3, the viscosity [6] was 77.86 ± 1.7 mPa·s and the mass density [7] was 1414.52 ± 11 kg/m3. For the same compound, the viscosity [8] was 61.73 ± 1.3 mPa·s, the mass density [9] was 1409.91 ± 11 kg/m3 and the viscosity [10] was 49.77 ± 1 mPa·s. For the same compound, the mass density [11] was 1405.31 ± 11 kg/m3, the viscosity [12] was 40.7 ± 0.85 mPa·s and the mass density [13] was 1400.7 ± 11 kg/m3. The viscosity [14] was 33.69 ± 0.71 mPa·s and the mass density [15] was 1396.13 ± 11 kg/m3.

Compound `CCC[n+]1ccn(C)c1C.O=S(=O)([N-]S(=O)(=O)C(F)(F)F)C(F)(F)F` has a viscosity [2] of 121.7 ± 3 mPa·s, a mass density [3] of 1459.14 ± 12 kg/m3 and a viscosity [4] of 92.8 ± 2.1 mPa·s. The mass density [5] was 1454.44 ± 12 kg/m3, the viscosity [6] was 72.1 ± 1.6 mPa·s and 71.1 ± 1.5 mPa·s and the mass density [7] was 1449.72 ± 12 kg/m3. The viscosity [8] was 57.76 ± 1.2 mPa·s, the mass density [9] was 1445 ± 12 kg/m3 and the viscosity [10] was 46.53 ± 0.98 mPa·s. It also gave a mass density [11] of 1440.28 ± 12 kg/m3, a viscosity [12] of 38.4 ± 0.81 mPa·s and a mass density [13] of 1435.57 ± 11 kg/m3. The viscosity [14] was 31.89 ± 0.67 mPa·s and the mass density [15] was 1430.87 ± 11 kg/m3.

In the case of `CCn1cc[n+](C)c1C.O=S(=O)([N-]S(=O)(=O)C(F)(F)F)C(F)(F)F`, the viscosity (293.15 K; 100 kPa; Metastable liquid; Capillary tube (Ostwald / Ubbelohde) method) is reported as 89.27 ± 2 mPa·s, the mass density (293.15 K; 100 kPa; Metastable liquid; Vibrating tube method) is reported as 1496.32 ± 12 kg/m3 and the viscosity (298.15 K; 100 kPa; Metastable liquid; Capillary tube (Ostwald / Ubbelohde) method) is reported as 70.77 ± 1.5 mPa·s. It also gave a mass density (298.15 K; 100 kPa; Metastable liquid; Vibrating tube method) of 1491.47 ± 12 kg/m3, a viscosity (303.15 K; 100 kPa; Capillary tube (Ostwald / Ubbelohde) method; Liquid) of 57.02 ± 1.2 mPa·s and a mass density (303.15 K; 100 kPa; Vibrating tube method; Liquid) of 1486.67 ± 12 kg/m3. It also gave a viscosity (308.15 K; 100 kPa; Capillary tube (Ostwald / Ubbelohde) method; Liquid) of 46.6 ± 0.98 mPa·s, a mass density (308.15 K; 100 kPa; Vibrating tube method; Liquid) of 1481.87 ± 12 kg/m3 and a viscosity (313.15 K; 100 kPa; Capillary tube (Ostwald / Ubbelohde) method; Liquid) of 38.62 ± 0.81 mPa·s. The mass density (313.15 K; 100 kPa; Vibrating tube method; Liquid) was 1477.09 ± 12 kg/m3, the viscosity (318.15 K; 100 kPa; Capillary tube (Ostwald / Ubbelohde) method; Liquid) was 32.33 ± 0.68 mPa·s and the mass density (318.15 K; 100 kPa; Vibrating tube method; Liquid) was 1472.32 ± 12 kg/m3. For the same compound, the viscosity (323.15 K; 100 kPa; Capillary tube (Ostwald / Ubbelohde) method; Liquid) was 27.06 ± 0.57 mPa·s and the mass density (323.15 K; 100 kPa; Vibrating tube method; Liquid) was 1467.56 ± 12 kg/m3.

In the case of `O=C1CCCO1` [γ-butyrolactone] + CCCCn1cc[n+](C)c1C.O=S(=O)([N-]S(=O)(=O)C(F)(F)F)C(F)(F)F, the viscosity ([1]; 293.15 K) is reported as 1.86 ± 0.04 mPa·s, the mass density ([1]; 293.15 K) is reported as 1129.49 ± 9 kg/m3 and the viscosity ([1]; 298.15 K) is reported as 1.71 ± 0.04 mPa·s. The mass density ([1]; 298.15 K) was 1124.59 ± 9 kg/m3, the viscosity ([1]; 303.15 K) was 1.58 ± 0.03 mPa·s and the mass density ([1]; 303.15 K) was 1119.68 ± 9 kg/m3. For the same compound, the viscosity ([1]; 308.15 K) was 1.47 ± 0.03 mPa·s, the mass density ([1]; 308.15 K) was 1114.78 ± 8.9 kg/m3 and the viscosity ([1]; 313.15 K) was 1.37 ± 0.03 mPa·s. It also gave a mass density ([1]; 313.15 K) of 1109.87 ± 8.9 kg/m3, a viscosity ([1]; 318.15 K) of 1.28 ± 0.03 mPa·s and a mass density ([1]; 318.15 K) of 1104.96 ± 8.8 kg/m3. The viscosity ([1]; 323.15 K) was 1.2 ± 0.03 mPa·s and the mass density ([1]; 323.15 K) was 1100.05 ± 8.8 kg/m3.

Work on `O=C1CCCO1` [γ-butyrolactone] + CCC[n+]1ccn(C)c1C.O=S(=O)([N-]S(=O)(=O)C(F)(F)F)C(F)(F)F yielded a viscosity ([1]; 293.15 K) of 1.86 ± 0.04 mPa·s, a mass density ([1]; 293.15 K) of 1129.49 ± 9 kg/m3 and a viscosity ([1]; 298.15 K) of 1.71 ± 0.04 mPa·s. For the same compound, the mass density ([1]; 298.15 K) was 1124.59 ± 9 kg/m3, the viscosity ([1]; 303.15 K) was 1.58 ± 0.03 mPa·s and the mass density ([1]; 303.15 K) was 1119.68 ± 9 kg/m3. For the same compound, the viscosity ([1]; 308.15 K) was 1.47 ± 0.03 mPa·s, the mass density ([1]; 308.15 K) was 1114.78 ± 8.9 kg/m3 and the viscosity ([1]; 313.15 K) was 1.37 ± 0.03 mPa·s. The mass density ([1]; 313.15 K) was 1109.87 ± 8.9 kg/m3, the viscosity ([1]; 318.15 K) was 1.28 ± 0.03 mPa·s and the mass density ([1]; 318.15 K) was 1104.96 ± 8.8 kg/m3. For the same compound, the viscosity ([1]; 323.15 K) was 1.2 ± 0.03 mPa·s and the mass density ([1]; 323.15 K) was 1100.05 ± 8.8 kg/m3.

For `O=C1CCCO1` [γ-butyrolactone] + CCn1cc[n+](C)c1C.O=S(=O)([N-]S(=O)(=O)C(F)(F)F)C(F)(F)F, the viscosity ([1]; 293.15 K) was 1.86 ± 0.04 mPa·s, the mass density ([1]; 293.15 K) was 1129.49 ± 9 kg/m3 and the viscosity ([1]; 298.15 K) was 1.71 ± 0.04 mPa·s. For the same compound, the mass density ([1]; 298.15 K) was 1124.59 ± 9 kg/m3, the viscosity ([1]; 303.15 K) was 1.58 ± 0.03 mPa·s and the mass density ([1]; 303.15 K) was 1119.68 ± 9 kg/m3. The viscosity ([1]; 308.15 K) was 1.47 ± 0.03 mPa·s, the mass density ([1]; 308.15 K) was 1114.78 ± 8.9 kg/m3 and the viscosity ([1]; 313.15 K) was 1.37 ± 0.03 mPa·s. It also gave a mass density ([1]; 313.15 K) of 1109.87 ± 8.9 kg/m3, a viscosity ([1]; 318.15 K) of 1.28 ± 0.03 mPa·s and a mass density ([1]; 318.15 K) of 1104.96 ± 8.8 kg/m3. For the same compound, the viscosity ([1]; 323.15 K) was 1.2 ± 0.03 mPa·s and the mass density ([1]; 323.15 K) was 1100.05 ± 8.8 kg/m3.

— the NIST ThermoML archive (doi:10.1016/j.jct.2016.06.012)
